According to patent US20140050778A1, “NUCLEIC ACID BINDING COMPOUNDS, METHODS OF MAKING, AND USE THEREOF” (UNIVERSITY OF ROCHESTER, priority 2010, published 2014):
Entries after “also recorded” stand apart in the source; their conditions may differ.

How the values were obtained:
human fibroblasts = experiment: MTT toxicity assay; assay type: cell-based; conditions: single substance, concentrations up to 500 μM
Procedure: (§1) For toxicity studies, mouse myoblasts or human fibroblasts were plated in a 96-well tissue culture plate in DMEM (10% fetal bovine serum, 100 units/ml penicillin, […]) and allowed to grow to approximately 80% confluence at 37° C. under CO2. Varying compound concentrations (up to 1 mM) were incubated with cells (48 hours, 37° C.). Media was then removed, and 3-(4,5-dimethylthiazol-2-yl)-2,5-diphenyltetrazolium bromide (“MTT”) in media was added to each well and incubated at 37° C. for 4 h. After removal of the MTT media, isopropanol (100 pp was added, and absorbance was measured at 600 nm on a Modulus microplate reader (Turner Biosystems).
SPR and fluorescence titration experiments, performed using the protocol described in Examples 3 and 4 above, except using as the target a highly conserved RNA sequence responsible for regulating the production of the Gag-Pol polyprotein via a −1 ribosomal frameshift, which occurs along a “slippery sequence” in gag-pol mRNA (SEQ ID NO: 7). This “frameshift stimulatory sequence” (or “HIV-1 FSS”) consists of an upper stemloop and a lower stem, separated by a purine bulge in the most common types of HIV (FIG. 19). For the fluorescent titration experiments, the upper stemloop of SEQ ID NO: 7 was employed. Cell uptake and toxicity studies were carried out using human fibroblasts according to Example 5 above.

[1] = target: (CUG)10 RNA (SEQ ID NO: 3); experiment: SPR binding to immobilized biotinylated RNA; conditions: SPR, (CUG)10
Procedure: SPR binding measurements were performed on a Biacore-X instrument (Biacore, Inc., Uppsala, Sweden) with two flow channels (FC1 and FC2). 5′-Biotinylated-RNA sequences, with a C6 linker separating the biotin label from the RNA (Integrated DNA Technologies Inc.) were immobilized on streptavidin (Rockland Immunochemicals) functionalized carboxylmethyl dextran coated sensor chips (CM5, G.E. Healthcare) using EDC/NHS (Advanced ChemTech) coupling chemistry. Filtered (0.2μ), degassed and autoclaved HBS-N buffer (0.01M Hepes, pH=7.4, 0.15 M NaCl) was employed as sample and as running buffer for all SPR experiments. A typical protocol for an experiment is as follows: A CM5 sensor chip was allowed to equilibrate to room temperature and then docked into the instrument. Following priming with running buffer, FC1 and FC2 were conditioned by manual injection of 20 μL aqueous NaOH (50 mM) at a flow rate of 30 μL/min. This was repeated 3 times followed by a wash command. Next, the carboxyl groups on the sensor chip surface in both flow cells were activated separately by injecting 60 μL of freshly prepared 1:1 mixture of EDC (0.4 M) and NHS (0.1 M) at a 5 μL/min flow rate followed by a wash. […] After washing, the surface was deactivated with 60 μL injection of ethanolamine (1M, pH=8.5) at 5 μL/min. The flow cells were primed, and the streptavidin surface in FC1 alone was blocked with 30 μL of biotin (20 μM in HBS-N) at 5 μL/min. The RNA (200 nM in running buffer, HBS-N) to be immobilized was unfolded by heating above its predicted melting temperature in a heated block for 2 min and then allowed to refold by cooling gradually to room temperature. The RNA was then immobilized in FC2 alone to response units ranging from 200-1000 RU using a 5 μL/min flow rate. Representative sensorgrams for the immobilization procedure is shown in FIGS. 2A-B. Two 20 μL aliquots of NaCl (0.5 M) were injected at a 30 μL/min flow rate to remove non-specifically bound RNA. The level of RNA immobilized was noted when the baseline was stable, usually after repeated buffer injection followed by a “prime” command. Binding measurements were performed by flowing various concentrations of the compounds to be analyzed over the immobilized RNA and recording the reference-subtracted (FC2−FC1) sensorgrams. For kinetic analysis, at least five sensorgrams corresponding to different concentrations of compound (usually ranging from 0.05-1 μM in HBS-N) were obtained using flow rates of either 60 μL/min or 30 μL/min. The experimental sensorgrams were globally fitted to a 1:1 binding equation (Biaevaluation software) to obtain association rates (ka) and dissociation rates ([…]) as well as equilibrium binding constants (KD). To measure the binding stoichiometry (n), the relations in equations (1-3) below were used: […]
where RUmax is the maximum resonance response unit at saturation, RURNA is the amount RU of RNA immobilized, n is the stoichiometry, MWcompound and MWRNA are molecular weights of compound and RNA respectively, and RUeq represents the resonance response at steady-state (equilibrium). The response units at equilibrium were subjected to Scatchard binding plots of (r/Cfree vs. r).
This technique allows the association and dissociation rates (ka and kd), equilibrium binding constants (KD), and the binding stoichiometry (n) to be measured in a label-free format (Liu and Wilson, “Quantitative Analysis of Small Molecule-nucleic Acid Interactions with a Biosensor Surface and Surface Plasmon Resonance Detection,” Methods Mol. Biol. 613:1-23 (2010), which is hereby incorporated by reference in its entirety).

mouse C2C12 myoblasts = experiment: Cell permeability by fluorescence microscopy; assay type: cell-based; conditions: 12 h, 125 μM, intrinsic fluorescence
Procedure: For cell permeability studies, human fibroblasts or mouse myoblasts grown to 80% confluence were exposed to compounds for 12 hours in a 96 well tissue culture plate. After removal of the culture media (DMEM, with 10% FBS, 1% pen-strep (GIBCO)) the cells were washed twice with PBS to remove excess compounds. Cells were then imaged while in buffer under a fluorescence microscope (Olympus IX70) in the 96-well plate using a 460 nm emission filter.

pseudotyped HIV = experiment: Pseudotyped HIV assay (HEK293T producer cells, p24 ELISA, HeLa LTR-luciferase); assay type: cell-based, HIV-1; conditions: 500 nM, single dose experiments
Procedure: Initial experiments were conducted to ascertain if compound 14 (designated as compound 5-5 Z in PCT Publ. […]. After transfection, cells were incubated with compound for 20 hours. Viruses produced in untreated and treated cells were recovered from the media and viral titers were assessed using a p24 ELISA assay as described previously by Miller et al., “The Dimerization Domain of HIV-1 Viral Infectivity Factor Vif is Required to Block Virion Incorporation of APOBEC3G,” Retrovirology 4:81 (2007), which is hereby incorporated by reference in its entirety. The same number of virus from control and compound-treated cells were used to infect a HeLa cell line expressing luciferase under the control of an LTR promoter (Platt et al., “Effects of CCRS and CD4 Cell Surface Concentrations on Infections by Macrophagetropic Isolates of Human Immunodeficiency Virus Type 1,” J. Virol. 72:2855-2864 (1998), which is hereby incorporated by reference in its entirety). Viral infectivity was quantified in microtiter well format based on the luciferase signals. […]
This experiment was repeated using a dose-response study to assess the efficacy of compound 18. […] Actin concentration (as measured by Western blot) was used to correct viral titers for any subtle variation in cell number, and to confirm that the observed effect is specific to virus production and not to off-target effects. […]

[2] = system: human fibroblasts / mouse myoblasts; experiment: MTT toxicity assay, comparison drugs (FIGS. 13A-B); assay type: cell-based
Procedure: as §1

Structure (SMILES): CCc1nc2cc3ccccc3cc2cc1C(=O)O [Compound 2, 2-ethylbenzo[g]quinoline-3-carboxylic acid]
- toxicity (MTT) (human fibroblasts): no toxicity
- apparent KD [1]: complete lack of binding
- cell membrane penetration / localization (mouse C2C12 myoblasts): only a modest ability to enter cells; also recorded: not internalized by cells
- decrease in viral titer relative to null control (pseudotyped HIV): no effect

Structure (SMILES): COc1cccc2c1C(=O)c1c(O)c3c(c(O)c1C2=O)C[C@@](O)(C(C)=O)C[C@@H]3O[C@H]1C[C@H](N)[C@H](O)[C@H](C)O1 [daunorubicin]
- toxicity (MTT) [2]: significant toxicity at all concentrations tested
